From paper PMC6971092, “Identification of emulsifier potato peptides by bioinformatics: application to omega-3 delivery emulsions and release from potato industry side streams” (Scientific Reports, 2020)
Residues, ends and D or L forms follow the SMILES beside them. No end group written: not given here.

How the values were obtained:
[1] = Solubility of peptides in sodium acetate-imidazole buffer; assay type: physicochemical; parameters: key: Soluble: totally soluble; Cloudy: cloudy: no totally soluble; settings: 0.2 wt.% in 10 mM sodium acetate - 10 mM imidazole buffer (pH 7); shaken 2 h at 50 °C and overnight at room temperature; visual
Description: (§1) Emulsions were produced as reported in our previous work[31]. A total amount of 2 g of 5 wt.% fish oil-in-water emulsion stabilized with 0.2 wt.% potato peptides was produced. Peptides (0.2 wt.%) were dissolved in 10 mM sodium acetate – 10 mM imidazole buffer (pH 7). For that, the peptide solutions were shaken (100 rpm) for 2 h in water bath at 50 °C and overnight at room temperature to allow complete solubilization and rehydration of the peptides (when possible). Primary homogenization was done by adding the fish oil to the peptide-buffer solution and mixing at 18,000 rpm for 30 s by using a POLYTRON PT1200E (Kinematic Inc., New York, USA). Secondary homogenization was done using a MICROSON XL2000 sonicator equipped with a P1 probe (Misonix, Inc., New York, USA). Emulsions were homogenized at an amplitude of 75% (maximum amplitude of 180 μm), running 2 passes of 30 s with a break of 1 min between passes. During sonication the emulsions were surrounded by iced water to minimize the increase in temperature. […] All emulsions were produced and tested in triplicate.
Among the 38 peptides tested, 14 peptides were not totally soluble resulting in cloudy aqueous phases (e.g. no transparent solutions were obtained and white peptides particles could be observed). […] Differences in pH are due to the acidic impurities present in the synthetic peptides used, and to the insufficient capacity of the buffer employed to keep pH constant at 7. Nonetheless, sodium acetate-imidazole buffer was preferred to phosphate buffer in order to avoid interferences of phosphate buffer in oxidative stability studies as consequence of its chelating activity.

[2] = Oxidative stability of emulsions by ESR (PBN-lipid spin adducts); settings: 5 wt.% fish oil-in-water emulsions; for oxidative stability of emulsion at 20 °C compared to α-10, α-12 and γ-1 (in words): storage at 20 °C; for oxidative stability of emulsion (generation of PBN-lipid spin adducts, in words, Fig. 4): storage 6 days in the dark at both 20 and 37 °C
Description: Oxidative stability of emulsions prepared with selected peptides was studied by electron spin resonance (ESR)[31]. ESR analysis was carried out using a benchtop MINISCOPE MS 5000 ESR spectrometer (MAGNETTECH GMBH, Germany). The instrument settings were as follows: magnetic field 320–360 mT, sweep time 60 s, modulation 0.2 mT and frequency 100 kHz. Emulsions were produced as described in section 2.3.1.2 and PBN was added as an ethanol solution (concentration of 50 mg/mL) to have 30 mM of PBN in the oil phase of the emulsion. The oxidative stability of the emulsions was determined during 6 days storage at 20 or 37 °C and samples were measured at days 0, 1 (only for 37 °C), 2, 4 and 6. For each sampling point, emulsion samples (50 μL) were transferred to borosilicate capillary tubes before they were introduced to the cavity of the ESR. Analyses were performed in triplicate at room temperature.

[3] = pH of peptide-stabilized emulsions; assay type: physicochemical; settings: 5 wt.% fish oil-in-water emulsion stabilized with 0.2 wt.% peptide in 10 mM sodium acetate - 10 mM imidazole buffer (pH 7)
Description: as §1
Among the 38 peptides tested, 14 peptides were not totally soluble resulting in cloudy aqueous phases (e.g. no transparent solutions were obtained and white peptides particles could be observed). […]

[4] = Iron (Fe2+) chelating activity; assay type: biochemical; settings: 0.2 wt.% at pH 7; data not shown
Description: Peptides were dissolved in 10 mM sodium acetate - 10 mM imidazole buffer (pH 7) at 0.2 wt.%. 1 1,1-Diphenyl-2-picrylhydrazyl (DPPH) radical scavenging activity, iron (Fe^2+) chelating activity and ferric (Fe^3+) reducing power were measured as described elsewhere.

[5] = Zeta potential of emulsions; assay type: physicochemical; settings: 5 wt.% fish oil-in-water emulsion, 0.2 wt.% peptide; after one day of storage; 10 μL emulsion in 5 mL buffer; 25 °C; mean ± SD, triplicate
Description: as §1
The zeta potential of the emulsions was measured after one day of storage in a ZETASIZER NANO ZS (Malvern instruments Ltd., Worcestershire, UK) with a DTS1070 cell at 25 °C[31]. […] The zeta potential range was set to −100 to +50 mV and the samples were analyzed with 100 runs. […]

[6] = Droplet size of emulsions by laser diffraction; assay type: physicochemical; settings: mean ± SD, triplicate
Description: as §1
(§2) The droplet size distribution of the emulsions was measured by laser diffraction in a MASTERSIZER 2000 (Malvern Instruments, Ltd., Worcestershire, UK) at days 0, 1, 3 and 6 during storage in dark at room temperature (~22 °C)[31]. Each emulsion was diluted in recirculating water (3000 rpm), until it reached an obscuration of 12%. The refractive indices of sunflower oil (1.469) and water (1.330) were used as particle and dispersant, respectively. Results are given in volume mean diameter (D4,3). Measurements were made in triplicate. Due to the low volume of emulsions produced, creaming was determined qualitatively by observing the appearance of the emulsions. Peptides forming emulsions with small droplet sizes and no creaming were selected for further study.

[7] = Qualitative observation of creaming of emulsions; assay type: physicochemical; parameters: key: 1: no creaming; 2: creaming; 3: oil layer above the emulsion; 4: phase separation
Description: as §1, §2

Compound | Solubility of peptides [1] | further results
CC(C)C[C@H](NC(=O)[C@H](CS)NC(=O)[C@H](Cc1ccccc1)NC(=O)[C@H](CCC(N)=O)NC(=O)[C@H](CC(=O)O)NC(=O)[C@H](CC(=O)O)NC(=O)[C@H](CO)NC(=O)[C@H](CO)NC(=O)[C@H](Cc1ccccc1)NC(=O)[C@@H]1CCCN1C(=O)[C@@H](N)CS)C(=O)N[C@@H](CCCCN)C(=O)N[C@H](C(=O)NCC(=O)N[C@H](C(=O)O)C(C)C)C(C)C [β-22] (H-CPFSSDDQFCLKVGV-OH) | Soluble | oxidative stability of emulsion at 20 °C compared to α-10, α-12 and γ-1 (in words) [2]: significantly more oxidatively stable
CC[C@H](C)[C@H](NC(=O)[C@@H](NC(=O)[C@@H](NC(=O)CNC(=O)[C@@H](NC(=O)[C@H](CCCCN)NC(=O)[C@H](C)NC(=O)[C@H](CS)NC(=O)[C@H](Cc1ccccc1)NC(=O)[C@H](CC(N)=O)NC(=O)[C@H](CC(=O)O)NC(=O)[C@H](CC(=O)O)NC(=O)[C@H](CCCNC(=N)N)NC(=O)[C@@H](N)CS)C(C)C)C(C)C)C(C)C)C(=O)O [γ-34] (H-CRDDNFCAKVGVVI-OH) | Cloudy | 
AKDIVPFYFEHGPHIFN [α-14] | Soluble | 
DDNFCAKVGVVIQ [β-30] | Cloudy | 
DNFCAKVGVVIQNGKRR [γ-44] | Cloudy | 
DSPETYEEALKRFAKLLSD [α-12] | Soluble | oxidative stability of emulsion (generation of PBN-lipid spin adducts, in words, Fig. 4) [2]: lowest oxidative stability
DTNGKELNPNSSYRIISIGRGALGGDVYL [γ-42] | Cloudy | 
EALKRFAKLLSD [α-11] | Soluble | 
ELDSRLSYRIISTFWGALGGDVYL [β-21] | Cloudy | 
ELDSRLSYRIISTFWGALGGDVYLGKSPN [β-20] | Cloudy | 
FAKLLSDRKKLRANK [γ-46] | Soluble | 
FCLKVGVIHQNGKRRLALVK [γ-49] | Soluble | oxidative stability of emulsion (generation of PBN-lipid spin adducts, in words, Fig. 4) [2]: highest oxidative stability
FCLKVGVVHQNGKRRLALVKDNP [γ-38] | Soluble | oxidative stability of emulsion at 20 °C compared to α-10, α-12 and γ-1 (in words) [2]: significantly more oxidatively stable
FDVIGGTSTGGLLTAMITTPNENNRP [γ-36] | Soluble | oxidative stability of emulsion (generation of PBN-lipid spin adducts, in words, Fig. 4) [2]: highest oxidative stability
FIPLSTNIFEDQLLNIQFNIPT [β-23] | Cloudy | 
GIIPATILEFLEGQLQEVDNN [γ-48] | Soluble | 
GIKGIIPAIILEFLEGQLQEVDNNKDAR [γ-1] | Soluble | oxidative stability of emulsion (generation of PBN-lipid spin adducts, in words, Fig. 4) [2]: lowest oxidative stability
GKELDPRLSYRI [β-26] | Soluble | 
HQNGKRRLALV [γ-39] | Soluble | 
IGSSSHFGPHIFEGELLNIQFDIS [β-29] | Cloudy | 

Compound | Solubility of peptides [1] | further results
ILEFLEGQLQEVDN [α-16] | Soluble | 
IPATILEFLEGQLQEVDNN [α-15] | Soluble | 
KDNPETYEEALKRFAKLLS [γ-41] | Soluble | 
KKPVSKDSPETYEEALKRFAKLLSDRKKL [α-10] | Soluble | oxidative stability of emulsion (generation of PBN-lipid spin adducts, in words, Fig. 4) [2]: lowest oxidative stability
KYDGKYLMQVLQE [α-17] | Cloudy | 
KYLMQVLQEKL [α-19] | Soluble | 
KYLMQVLQEKLGE [α-18] | Cloudy | 
LGGDVYLGKSPNSDAPCP [β-31] | Soluble | 
LLTAMITTPNENNRP [γ-37] | Soluble | 
LNIQFNI [β-24] | Cloudy | 
LNIQFNIPTPKLC [β-27] | Cloudy | oxidative stability of emulsion (generation of PBN-lipid spin adducts, in words, Fig. 4) [2]: highest oxidative stability
NPNSSYRIISI [γ-43] | Soluble | 
NRPFAAAKDIVPFYFEHGPHIFN [α-13] | Soluble | 
RDDNFCAKVGVVI [γ-35] | Cloudy | 
SSDDQFCLKVGVV [γ-40] | Cloudy | oxidative stability of emulsion (generation of PBN-lipid spin adducts, in words, Fig. 4) [2]: highest oxidative stability
Sodium caseinate | Soluble | pH of emulsion [3]: 6.9; Fe2+ chelating activity [4]: 98.5 ± 0.2%; Zeta potential (mV) [5]: −41.5 ± 1.1 mV; D4,3 (μm) Day 1 ([6]; as Day 0, day 1 of storage in dark at room temperature (~22 °C)): 1.1 ± 0.2 μm; D4,3 (μm) Day 3 ([6]; as Day 0, day 3 of storage in dark at room temperature (~22 °C)): 0.9 ± 0.2 μm; D4,3 (μm) Day 6 ([6]; as Day 0, day 6 of storage in dark at room temperature (~22 °C)): 1.0 ± 0.2 μm; D4,3 (μm) Day 0 ([6]; volume mean diameter, 5 wt.% fish oil-in-water emulsion, 0.2 wt.% peptide, pH 7 buffer, laser diffraction, day 0): 1.1 ± 0.2 μm; oxidative stability of emulsion (generation of PBN-lipid spin adducts, in words, Fig. 4) [2]: highest oxidative stability; Observations Day 0 (creaming) ([7]; appearance of 5 wt.% fish oil-in-water emulsion, 0.2 wt.% peptide, day 0): 1; Observations Day 1 (creaming) ([7]; appearance of emulsion, day 1 of storage at ~22 °C): 1; Observations Day 6 (creaming) ([7]; appearance of emulsion, day 6 of storage at ~22 °C): 1
TPNENNRPFAAAKDIV [γ-47] | Soluble | 
VGVVIQNGKRR [γ-45] | Soluble | 
VHQNGKRRLALVKDNPLDVSFK [β-28] | Soluble | 
